In ChEMBL document CHEMBL1152075, “Synthesis and SAR of diiodotyrosine-derived glycine-site N-methyl-D-aspartate receptor ligands” (Bioorg Med Chem Lett, 1996):

Organism: Rattus norvegicus
Test: In vitro antagonist potency was determined by blockade of NMDA- induced depolarizations on rat cortical slices
Assay type: functional

Row | Structure (SMILES) | Kb [µM]
1 | N[C@H](Cc1cc(I)c(OCCc2cccc(O)c2)c(I)c1)C(=O)O | 2.5
2 | N[C@H](Cc1cc(I)c(OCCc2ccc(O)cc2)c(I)c1)C(=O)O | 2.2
3 | N[C@H](Cc1cc(I)c(OCCc2ccncc2)c(I)c1)C(=O)O | 0.67

Target: Glutamate NMDA receptor
Test: Ability to displace [3H]L-689560 from NMDA receptor glycine site in rat brain membranes
Assay type: cell membranes

Row | Structure (SMILES) | IC50 [µM]
4 | N[C@H](Cc1cc(I)c(O)c(I)c1)C(=O)O | 100
5 | N[C@H](Cc1cc(I)c(OCCc2ccccc2)c(I)c1)C(=O)O | 0.51
6 | N[C@H](Cc1cc(I)c(Oc2ccc(O)cc2)c(I)c1)C(=O)O | 4.1
7 | COC(=O)[C@H](N)Cc1cc(I)c(OCCc2ccc(O)cc2)c(I)c1 | 100
8 | N[C@H](Cc1cc(I)c(OCCc2ccncc2)c(I)c1)C(=O)O | 0.46
9 | CC(=O)N[C@H](Cc1cc(I)c(OCCc2ccc(O)cc2)c(I)c1)C(=O)O | > 100
10 | N[C@@H](Cc1cc(I)c(OCCc2ccc(O)cc2)c(I)c1)C(=O)O | > 100
11 | N[C@H](Cc1ccc(OCCc2ccccc2)cc1)C(=O)O | 100

Other lines, results leading:

Row | IC50 [µM] | Structure (SMILES)
12 | 1.5 | CCOc1c(I)cc(C[C@@H](N)C(=O)O)cc1I
13 | 0.35 | N[C@H](Cc1cc(I)c(OCCc2cccc(O)c2)c(I)c1)C(=O)O
14 | 0.9 | NC(Cc1cc(I)c(OCCc2ccc(O)cc2)c(I)c1)C(=O)O (configuration not stated)
15 | 0.33 | N[C@H](Cc1cc(I)c(Oc2cc(I)c(O)c(I)c2)c(I)c1)C(=O)O [DEXTROTHYROXINE]
16 | 7.3 | N[C@H](Cc1ccc(OCCc2ccccc2)c(I)c1)C(=O)O
17 | 0.79 | N[C@H](Cc1cc(I)c(OCc2ccccc2)c(I)c1)C(=O)O
